For the test, the system named is microbial population (oilfield produced waters containing a range of microbes). Kind of test: ATP quantification of oilfield produced waters after biocide treatment. In kind it is cell-based. The settings on record: 400 ppm, after four hours, oilfield produced waters amended with nutrients, versus untreated control. As for the experimental part: Laboratory tests were performed to observe the environmentally friendly biocide of one embodiment for its ability to reduce microbial populations. The performance of the environmentally friendly biocide was further compared with that of two non-biodegradable biocidal quaternary amine compounds: alkyldimethylbenxylammonium chloride (ADBAC) and didecyldimethylammonium chloride (DDAC).
Test bottles were prepared with oilfield produced waters amended with nutrients containing a range of microbes. These bottles were treated with 400 ppm of either di(dimethyl(alkyl)ammonium chloride) ethanoyloxy-oxo, ADBAC, or DDAC, with one test bottle left as an untreated control. After four hours, ATP quantification and serial dilution using Modified Postgate's B media were performed for the various test bottles.
“alkyldimethylbenxylammonium chloride [ADBAC]”: the “reduction of the microbial population via ATP” value (“reduction” for short) worked out at 99.16%.

On to `CCCCCCCCCC[N+](C)(C)CCCCCCCCCC.[Cl-]` [DDAC, didecyldimethylammonium chloride], for which the “reduction” value is given as 99.06%.

For the compound “di(dimethyl(alkyl)ammonium chloride) ethanoyloxy-oxo”, the “reduction” value came out at 96.79%.

Source of the values: US12685311B2, “Environmentally friendly biocidal quaternized amine compound” (Baker Hughes Oilfield Operations LLC, priority 2023, dated 2026).
